The record followed here is ChEMBL document CHEMBL2016486, “Synthesis of [Tyr-5-Ψ(CH2NMe)-Tyr-6]RA-VII, a reduced peptide bond analogue of RA-VII, an antitumor bicyclic hexapeptide” (Bioorg Med Chem Lett, 2012).

Converted amounts (≈) assume the structure as drawn.

In the assay the test system is P388. The assay can be described thus: Cytotoxicity against mouse P388 cells. The class given is functional, cell-based.

For the compound `COc1ccc(C[C@H]2C(=O)N[C@@H](C)C(=O)N(C)[C@H]3Cc4ccc(cc4)Oc4cc(ccc4OC)C[C@@H](C(=O)N[C@H](C)C(=O)N[C@@H](C)C(=O)N2C)N(C)C3)cc1`, the midpoint of inhibition, the IC50, lay at 5 µg/mL (≈ 6.61 µM).

Regarding `COc1ccc(C[C@H]2C(=O)N[C@@H](C)C(=O)N(C)[C@H]3Cc4ccc(cc4)Oc4cc(ccc4OC)C[C@@H](C(=O)N[C@H](C)C(=O)N[C@@H](C)C(=O)N2C)N(C)C3=O)cc1`, the half-maximal inhibitory concentration (IC50) (usually the concentration at which inhibition is half-maximal) is 0.0043 µg/mL (≈ 0.00558 µM).
